US7977341B2, “Substituted isoxazoles as fungicides” (Syngenta Limited, priority 2004, dated 2011)
Like-named read-outs stand apart in the source and are kept apart here.

Key:
Stagonospora nodorum = experiment: Fungicidal activity, microtiter plate format; assay type: cell-based; conditions: for IC50: Parastagonospora nodorum, read-out: IC50 S. nodorum
Septoria tritici = experiment: Fungicidal activity, microtiter plate format; assay type: cell-based
Phytophthora infestans = experiment: microbe, parasite or virus in culture; assay type: cell-based; conditions: read-out: IC50 P. infestans
Botrytis cinerea = experiment: Fungicidal activity, microtiter plate format; assay type: cell-based
Puccinia recondita = experiment: Cereal field trial on soft red winter wheat (leaf rust); assay type: in vivo; conditions: wheat cultivar Sisson
Protocol: A field trial of Compound 4 was conducted on soft red winter wheat cultivar Sisson. Very dry weather gave rise to a low natural incidence of leaf rust (Puccinia recondita: PUCCRT) late in the trial. Compound 4 was applied as a 9.5% active ingredient (weight/weight) emulsifiable concentrate of the following formula (each weight/weight): 9.5% Compound 4, 9.5% m-Pyrol, 65% Surfadone LP-100, 6% Surfadone LP-300, 5% Toximul 3463F, and 5% Toximul 3464F. Rates of Compound 4 application were as follows (grams active ingredient per hectare: g a.i./ha): 140, 280 and 421.

Sclerotinia homoeocarpa = experiment: Turf trial on creeping bentgrass (dollar spot)
Protocol: A fungicide trial was conducted on a 15-yr-old sward of creeping bentgrass v. Penncross during the spring. […] Treatments were arranged as plots (0.5×1.0 m) in a randomized complete block design with four replications. […] The turfgrass was inoculated with autoclaved tall fescue seed infested with Sclerotinia homoeocarpa (common name: dollar spot) six hours after application of the initial preventive treatments. The plots received approximately 0.24 inches of irrigation water daily at 1700 hour to ensure nightly foliar wetness for infection. The Horsfall-Barratt rating scale was used to visually estimate disease severity at approximately 7-day intervals from the initial application date. Turfgrass quality was assessed using a 0-9 scale where 0=a necrotic, thin foliar canopy and 9=a dark green, dense foliar canopy. Disease and quality values were subjected to analysis of variance and means were statistically separated using the Scott-Knott cluster analysis procedure.

[1] = fungal growth on agar, 20° C., 3-5 days, C.V. class in parentheses

Compound	IC50 (Phytophthora infestans)	IC50 B. cinerea (Botrytis cinerea; [1])	IC50 S. nodorum (Stagonospora nodorum; [1])	IC50 S. tritici (Septoria tritici; [1])	IC50 S. tritici (Septoria tritici)	further results
CC(C)(C)c1onc(-c2ccc(Cl)cc2Cl)c1C(O)c1cccnc1 (stereo not shown) [Compound 7, 3-(2,4-Dichlorophenyl)-5-(1,1-dimethylethyl)-4-[(3-pyridyl)hydroxymethyl]-isoxazole]	> 100 µM	B (c)	–	–	–	IC50 (Stagonospora nodorum; [1]): > 100 µM; IC50 (Septoria tritici; Zymoseptoria tritici, fungal growth on agar, 20° C., 3-5 days, C.V. class in parentheses, read-out: IC50 S. tritici): > 100 µM
OC(c1cccnc1)c1c(-c2ccc(Cl)cc2Cl)noc1-c1cccc(Cl)c1 (stereo not shown) [Compound 4, 5-(3-Chlorophenyl)-3-(2,4-dichlorophenyl)-4-[(3-pyridyl)hydroxymethyl]-isoxazole]	> 100 µM	B (d)	A (b)	A (c)	–	Control of leaf rust incidence (Puccinia recondita; 9.5% emulsifiable concentrate, 140, 280 and 421 g a.i./ha, low natural incidence): good control of the rust incidence; Yield enhancement (Puccinia recondita; highest rate of Compound 4): Yield enhancement was observed; Dollar spot disease control (Horsfall-Barratt disease severity) (Sclerotinia homoeocarpa; creeping bentgrass v. Penncross, Compound 4 as 25% wetable powder at 2.2, 4.4, 8.8 g a.i./1000 sq ft, mean disease <3.0% acceptable): effective control on dollar spot during most of the trial period; Turfgrass quality (0-9 scale) (Sclerotinia homoeocarpa; creeping bentgrass, ratings >6.0 acceptable): Highest quality ratings
OC(c1cccnc1)c1c(-c2ccc(Cl)cc2Cl)noc1-c1ccsc1 (stereo not shown) [Compound 13, 3-(2,4-Dichlorophenyl)-4-[(3-pyridyl)hydroxymethyl]-5-(3-thienyl)isoxazole]	> 100 µM	B (b)	B (d)	A (b)	–	–
C[Si](C)(C)c1onc(-c2c(Cl)cccc2Cl)c1C(O)c1cccnc1 (stereo not shown) [Compound 1, 3-(2,6-Dichlorophenyl)-4-[(3-pyridyl)hydroxymethyl]-5-trimethylsilylisoxazole]	> 100 µM	–	–	–	C (b)	IC50 (Stagonospora nodorum): > 100 µM; IC50 (Botrytis cinerea; Botrytis cinerea, read-out: IC50 B. cinerea): > 100 µM
OC(c1cccnc1)c1c(-c2ccc(Cl)cc2Cl)noc1-c1cccs1 (stereo not shown) [Compound 12, 3-(2,4-Dichlorophenyl)-4-[(3-pyridyl)hydroxymethyl]-5-(2-thienyl)isoxazole]	> 100 µM	B (c)	B (d)	A (b)	–	–
C[Si](C)(C)c1onc(-c2ccc(Cl)cc2Cl)c1C(O)c1cccnc1 (stereo not shown) [Compound 3, 3-(2,4-Dichlorophenyl)-4-[(3-pyridyl)hydroxymethyl]-5-trimethylsilylisoxazole]	> 100 µM	–	–	–	A (b)	IC50 S. nodorum (Stagonospora nodorum): B (d); IC50 B. cinerea (Botrytis cinerea): B (b)
